Here are results for seven molecules from PMC11697714, “Strigolactones initiate the formation of haustorium-like structures in Castilleja” (iScience, 2024).

Where two headings read alike, the source gives them in different places.

The target of data set [1] is T1, KAI2d15 (Castilleja foliolosa, UniProt A0ABD3DF95).
T1 construct: GST fusion (pGEX-4T-1) in E. coli BL21, GST cut with HRV 3C leaving N-terminal Gly-Pro; synthetic codon-optimised gene; catalytic triad S95, D217, H246; entrance M142, M153, M157; genome GenBank JAVIJP000000000
Put plainly: differential scanning fluorimetry, SYPRO Orange. The format is binding. The conditions noted are these: 20 mM Tris-HCl, 30 mM NaCl, 1 mM TCEP, pH 7.7. (In DSF a fluorescence change marks the thermal transition of the protein.)

Data set [2] concerns the target T2, KAI2d15 (Castilleja foliolosa, UniProt A0ABD3DF95, M143V/M154V/M158V, form not given).
T2 construct: GST fusion (pGEX-4T-1) in E. coli BL21, GST cut with HRV 3C leaving N-terminal Gly-Pro; synthetic codon-optimised gene; catalytic triad S95, D217, H246; entrance M142, M153, M157; genome GenBank JAVIJP000000000
Nature of the data set: differential scanning fluorimetry, SYPRO Orange. In kind it is binding. The note with it: 20 mM Tris-HCl, 30 mM NaCl, 1 mM TCEP, pH 7.7.

A further data set addresses T3, KAI2d8 (Castilleja foliolosa, UniProt A0ABD3DF32).
T3 construct: GST fusion (pGEX-4T-1) in E. coli BL21, GST cut with HRV 3C leaving N-terminal Gly-Pro; synthetic codon-optimised gene; genome GenBank JAVIJP000000000
T3 sequence (A0ABD3DF32 1-275): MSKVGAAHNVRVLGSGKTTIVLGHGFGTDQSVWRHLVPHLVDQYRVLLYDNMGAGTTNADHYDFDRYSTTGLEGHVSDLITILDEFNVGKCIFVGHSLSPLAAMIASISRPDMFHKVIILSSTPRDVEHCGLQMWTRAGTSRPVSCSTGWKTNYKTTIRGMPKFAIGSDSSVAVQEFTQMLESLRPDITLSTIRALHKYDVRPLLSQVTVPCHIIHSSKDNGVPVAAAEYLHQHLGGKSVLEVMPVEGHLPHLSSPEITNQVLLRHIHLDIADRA
Nature of the data set: differential scanning fluorimetry, SYPRO Orange. In kind it is binding. The conditions noted are these: 20 mM Tris-HCl, 30 mM NaCl, 1 mM TCEP, pH 7.7.

In data set [3] the target is T2, KAI2d15. Put plainly: fluorescent hydrolysis, Michaelis-Menten. In kind it is biochemical.
The target in data set [4] is T1, KAI2d15. Nature of the data set: fluorescent hydrolysis, Michaelis-Menten. The format is biochemical.
Another data set concerns T4, KAI2d14.
T4 construct: GST fusion (pGEX-4T-1) in E. coli BL21, GST cut with HRV 3C leaving N-terminal Gly-Pro; synthetic codon-optimised gene; genome GenBank JAVIJP000000000
Nature of the data set: fluorescent hydrolysis, Michaelis-Menten. The format is biochemical, Castilleja foliolosa. The source says: fluorescent hydrolysis, Michaelis-Menten on KAI2d14 | Michaelis-Menten experiments using the large fluorescent strigolactone analog Yoshimulactone Green (YLG)

Another data set concerns T5, KAI2i1.
T5 construct: GST fusion (pGEX-4T-1) in E. coli BL21, GST cut with HRV 3C leaving N-terminal Gly-Pro; synthetic codon-optimised gene; genome GenBank JAVIJP000000000
Put plainly: fluorescent hydrolysis, Michaelis-Menten. In kind it is biochemical, Castilleja foliolosa. The source says: fluorescent hydrolysis, Michaelis-Menten on KAI2i1 | Michaelis-Menten experiments using the large fluorescent strigolactone analog Yoshimulactone Green (YLG)

Substrate in data set [5]: CCOC(=O)c1ccccc1-c1c2ccc(=O)cc-2oc2cc(OC3C=C(C)C(=O)O3)ccc12
Nature of the data set: fluorescent hydrolysis, Michaelis-Menten. In kind it is biochemical, Castilleja foliolosa. The source says: fluorescent hydrolysis, Michaelis-Menten on KAI2d9 | Michaelis-Menten experiments using the large fluorescent strigolactone analog Yoshimulactone Green (YLG)

Substrate in data set [6]: CCOC(=O)c1ccccc1-c1c2ccc(=O)cc-2oc2cc(OC3C=C(C)C(=O)O3)ccc12
Nature of the data set: fluorescent hydrolysis, Michaelis-Menten. In kind it is biochemical, Castilleja foliolosa. The source says:
fluorescent hydrolysis, Michaelis-Menten on KAI2d8 | Michaelis-Menten experiments using the large fluorescent strigolactone analog Yoshimulactone Green (YLG)
The source holds these as a separate data set.

T1 sequence (A0ABD3DF95 entry or part of it): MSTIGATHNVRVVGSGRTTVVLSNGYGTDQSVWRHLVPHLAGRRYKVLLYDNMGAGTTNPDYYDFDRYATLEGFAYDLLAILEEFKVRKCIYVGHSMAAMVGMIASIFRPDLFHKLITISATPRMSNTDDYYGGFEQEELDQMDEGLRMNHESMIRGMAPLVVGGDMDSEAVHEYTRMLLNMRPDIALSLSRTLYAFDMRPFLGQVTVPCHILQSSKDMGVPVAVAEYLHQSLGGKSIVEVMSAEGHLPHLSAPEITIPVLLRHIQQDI
T2 sequence (A0ABD3DF95 entry or part of it M143V/M154V/M158V, form open): as the sequence (A0ABD3DF95 entry or part of it) above, with M143V, M154V, M158V counted along it

For the molecule `CC1=C[C@H](O/C=C2/C(=O)O[C@@H]3C4=C(C[C@H]23)[C@@H](O)CCC4(C)C)OC1=O` [strigol], the “differential scanning fluorimetry, SYPRO Orange” value on KAI2d15 [1] is “wild-type protein destabilized at lower concentrations of strigol or orobanchol”; at KAI2d15 [2], “DSF experiments with four different strigolactone molecules, testing both the variant and the wild-type protein”.
For the molecule `CC1=CC(OC=C2C(=O)OC3C4=C(CCCC4(C)C)C(O)C23)OC1=O` (stereo not shown) [orobanchol], the “differential scanning fluorimetry, SYPRO Orange” value was “wild-type protein destabilized at lower concentrations of strigol or orobanchol” on KAI2d15 [1]; “DSF experiments with four different strigolactone molecules, testing both the variant and the wild-type protein” on KAI2d15 [2].
Consider `CC1=C[C@H](O/C=C2/C(=O)O[C@@H]3C4=C(CCCC4(C)C)C[C@H]23)OC1=O` [5-deoxystrigol], for which the “differential scanning fluorimetry, SYPRO Orange” value was “DSF experiments with four different strigolactone molecules, testing both the variant and the wild-type protein” at KAI2d15 [1]; “mutant protein showed destabilization at lower ligand concentrations when GR24 or 5-deoxystrigol were present” on KAI2d15 [2].
In the case of `CC1=C[C@H](O/C=C2/C(=O)O[C@@H]3c4ccccc4C[C@H]23)OC1=O` [GR24 5DO], the “differential scanning fluorimetry, SYPRO Orange” value at KAI2d8 is listed as “A weaker but discernible destabilization was noted with KAI2d8”; on KAI2d15 [2] (printed only as GR24), “mutant protein showed destabilization at lower ligand concentrations when GR24 or 5-deoxystrigol were present”.
Regarding `CCOC(=O)c1ccccc1-c1c2ccc(=O)cc-2oc2cc(OC3C=C(C)C(=O)O3)ccc12` (stereo not shown) [Yoshimulactone Green], the Km (commonly the substrate concentration at which the rate is half of its maximum) at KAI2d15 [3] was 2400 nM; at KAI2d15 [4], 800 nM; in the data set with KAI2d14, 1100 ± 300 nM; in the data set with KAI2i1 it was 3.1 ± 0.7 µM.

B1: KAI2d9 (Castilleja foliolosa) (protein)
chain: MSTVGSAHNVQVIGSGETTVVLGHGYGTDQSVWKNLVPHLVDQYKVLLFDNMGAGTTNPDYFDFERYSTLEGYAYDLIAILEEFNVHKCIYVGHSMSAIAGAIASIFRPDLFHKLIMICASPRLTNTGDYYGGFKQEELEQLSGAMESNFQSMAMGRAPLVIGSDLESEAVQEYCRTLFNMRPDISFSVVRTIFALDMRPFLPQVTVPCHIIQSSKDIYVPLSVGEYLHQNLGGKSIVEVMPTQGHLPHLSAPEVTNPVLLRHIQQDIADA
notes: GST fusion (pGEX-4T-1) in E. coli BL21, GST cut with HRV 3C leaving N-terminal Gly-Pro; synthetic codon-optimised gene; genome GenBank JAVIJP000000000
For B1, in data set [5], the Km is given as 0.5 ± 0.1 µM; the catalytic constant (kcat) (as a rule, the number of substrate molecules converted per active site and unit of time at saturation) came to 600 ± 49 s⁻¹.

B2: KAI2d8 (Castilleja foliolosa) (protein)
chain: T3 sequence (A0ABD3DF32 1-275)
notes: as for B1
B2: in data set [6], the Km was found to be 6.6 ± 0.2 µM and the kcat is 2780 ± 193 s⁻¹.
